The source of these data is ChEMBL document CHEMBL5528083, “Discovery of a Novel Thienopyrimidine Compound as a Urate Transporter 1 and Glucose Transporter 9 Dual Inhibitor with Improved Efficacy and Favorable Druggability” (J Med Chem, 2024).

The term inhibition denotes the share of the control response that was lost under treatment.

Data set [1] is filed under the species Mus musculus. The data set is described as follows: Reduction in serum uric acid level in acute hyperuricemia state Kunming mouse model assessed as SUA level by measuring decrease ratio relative to control. The class given is functional. Also noted: concentration or dose not given beside the values.
Data set [2] is filed under the species Mus musculus. The data set is described as follows: Reduction in serum uric acid level in acute hyperuricemia state Kunming mouse model assessed as SUA level. The class given is functional.
For data set [3], the target named is T1, Solute carrier family 2, facilitated glucose transporter member 9 (Mus musculus) (UniProt Q3T9X0).
T1 sequence (whole entry): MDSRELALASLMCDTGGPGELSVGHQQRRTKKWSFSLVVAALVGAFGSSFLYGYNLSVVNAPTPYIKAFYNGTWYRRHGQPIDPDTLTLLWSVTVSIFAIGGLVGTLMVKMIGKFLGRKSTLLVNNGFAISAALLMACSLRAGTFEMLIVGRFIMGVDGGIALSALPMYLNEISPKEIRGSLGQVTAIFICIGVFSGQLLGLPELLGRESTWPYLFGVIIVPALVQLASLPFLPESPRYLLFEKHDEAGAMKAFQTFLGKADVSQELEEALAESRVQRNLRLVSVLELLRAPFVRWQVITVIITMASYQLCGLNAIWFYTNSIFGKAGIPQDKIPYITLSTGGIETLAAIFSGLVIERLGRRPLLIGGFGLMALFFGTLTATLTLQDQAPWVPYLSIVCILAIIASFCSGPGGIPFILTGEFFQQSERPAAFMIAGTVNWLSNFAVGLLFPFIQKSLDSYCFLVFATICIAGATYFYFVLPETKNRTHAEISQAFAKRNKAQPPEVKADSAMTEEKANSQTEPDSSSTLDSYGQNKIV
The data set is described as follows: Inhibition of mouse EGFP-tagged GLUT9 expressed in HEK293T cells assessed as inhibition rate by measuring relative current at 5 uM by patch clamp electrophysiological analysis relative to control. The class given is cell-based. Also noted: scale not given: the % may be the effect or the level left. On the technique in general: The patch-clamp technique gives a direct electrical read-out from membranes.

Data set [4] deals with Mus musculus. Description: Reduction in serum uric acid level in acute hyperuricemia state Kunming mouse model assessed as SUA level at 2 mg/kg, po (reference value: 1037 +/- 106.59 uM). The class given is functional.
The species entered for data set [5] is Mus musculus. The data set is described as follows: Reduction in serum uric acid level in chronic hyperuricemia state Kunming mouse model assessed as SUA level by measuring decrease ratio relative to control. The class given is functional. Also noted: scale not given: the % may be the effect or the level left.
The nature of data set [6]: Acute toxicity in Kunming mouse assessed as fatality rate at 1000 mg/kg, po administered as single dose monitored for 7 days. The note with it: Kunming, in vivo, time 7 day, read-out: Activity. The class given is organism-based.
Data set [7] in a line: Subacute toxicity in Kunming mouse assessed as abnormal behavior at 25 mg/kg, po administered every other day for 14 days. The class given is organism-based. The note with it: in vivo, 336 h, time 14 day.
Data set [8] can be described thus: Toxicity in Kunming female mouse assessed as balloon like degeneration of liver at 100 mg/kg, po administered every other day for 14 days by H and E staining based assay. The class given is organism-based. The note with it: in vivo, 336 h, time 14 day.
Data set [9] can be described thus: Acute toxicity in Kunming mouse assessed as fatality rate at 500 mg/kg, po administered as single dose monitored for 7 days. The class given is organism-based. The settings on record: Kunming, in vivo, time 7 day, read-out: Activity.
Data set [10] is filed under the species Mus musculus. Description: Reduction in serum uric acid level in chronic hyperuricemia state Kunming mouse model assessed as SUA level (reference value: 660.33 +/- 103.57 uM). The class given is functional.
The subject of data set [11] is Rattus norvegicus. Description: Reduction in serum uric acid level in po dosed acute hyperuricemia state Sprague-Dawley rat model assessed as SUA level (reference value: 955.20 +/- 85.56 uM). The class given is functional.
Data set [12] deals with Xanthine dehydrogenase/oxidase (Bos taurus, UniProt P80457). Description: Inhibition of bovine XOD using xanthine as substrate assessed as inhibitory ratio at 10 uM by spectrophotometric analysis relative to control. The note with it: cattle.
A short description of data set [13]: Toxicity in Kunming female mouse assessed as renal injury at 100 mg/kg, po administered every other day for 14 days by H and E staining based assay. The class given is organism-based. The note with it: in vivo, 336 h, time 14 day.
Data set [14] is described as follows: Toxicity in Kunming female mouse assessed as coagulation necrosis of hepatocyte at 100 mg/kg, po administered every other day for 14 days by H and E staining based assay. The class given is organism-based. The note with it: 336 h, time 14 day.
Data set [15] concerns Rattus norvegicus. The data set is described as follows: Reduction in serum uric acid level in po dosed acute hyperuricemia state Sprague-Dawley rat model assessed as SUA level by measuring decrease ratio relative to control. The class given is functional. Also noted: scale not given: the % may be the effect or the level left.
The subject of data set [16] is Mus musculus. Description: Reduction in serum uric acid level in acute hyperuricemia state Kunming mouse model assessed as SUA level by measuring decrease ratio at 2 mg/kg, po relative to control. The class given is functional. Also noted: scale not given: the % may be the effect or the level left.

Xanthine dehydrogenase/oxidase, sequence (P80457 whole entry): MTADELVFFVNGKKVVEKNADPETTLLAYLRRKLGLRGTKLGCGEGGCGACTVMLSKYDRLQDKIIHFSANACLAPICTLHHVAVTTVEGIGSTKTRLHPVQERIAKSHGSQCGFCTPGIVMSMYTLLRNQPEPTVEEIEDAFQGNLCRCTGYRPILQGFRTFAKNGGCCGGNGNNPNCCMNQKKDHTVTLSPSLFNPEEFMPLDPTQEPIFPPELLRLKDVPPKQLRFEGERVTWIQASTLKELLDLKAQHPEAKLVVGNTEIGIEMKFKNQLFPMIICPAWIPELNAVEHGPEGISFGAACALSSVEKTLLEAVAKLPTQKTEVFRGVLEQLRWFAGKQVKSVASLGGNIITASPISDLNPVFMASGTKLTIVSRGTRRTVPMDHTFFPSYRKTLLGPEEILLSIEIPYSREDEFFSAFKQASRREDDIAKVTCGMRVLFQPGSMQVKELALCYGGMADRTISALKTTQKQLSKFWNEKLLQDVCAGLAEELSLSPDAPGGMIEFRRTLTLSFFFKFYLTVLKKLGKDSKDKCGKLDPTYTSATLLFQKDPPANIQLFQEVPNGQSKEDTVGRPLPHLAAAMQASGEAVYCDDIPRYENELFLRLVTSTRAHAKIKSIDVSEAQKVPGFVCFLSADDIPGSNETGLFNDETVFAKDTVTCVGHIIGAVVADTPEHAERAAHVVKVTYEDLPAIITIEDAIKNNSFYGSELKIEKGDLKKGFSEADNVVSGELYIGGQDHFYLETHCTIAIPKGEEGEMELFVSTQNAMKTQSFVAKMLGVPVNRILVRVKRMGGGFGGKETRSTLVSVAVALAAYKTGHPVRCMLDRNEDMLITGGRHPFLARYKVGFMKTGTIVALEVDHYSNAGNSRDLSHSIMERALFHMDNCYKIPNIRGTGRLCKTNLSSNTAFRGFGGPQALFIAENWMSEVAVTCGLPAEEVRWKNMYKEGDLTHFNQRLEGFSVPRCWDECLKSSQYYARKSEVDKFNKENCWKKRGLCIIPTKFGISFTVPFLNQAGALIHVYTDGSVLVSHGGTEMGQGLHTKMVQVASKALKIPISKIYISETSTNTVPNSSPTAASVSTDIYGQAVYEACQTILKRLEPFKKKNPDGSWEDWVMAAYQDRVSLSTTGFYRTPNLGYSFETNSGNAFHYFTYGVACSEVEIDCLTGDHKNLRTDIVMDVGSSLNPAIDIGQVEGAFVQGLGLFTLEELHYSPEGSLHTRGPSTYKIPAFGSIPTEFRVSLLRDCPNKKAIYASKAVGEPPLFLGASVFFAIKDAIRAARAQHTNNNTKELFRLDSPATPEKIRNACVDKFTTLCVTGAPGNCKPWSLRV

In the case of `CCc1oc2ccccc2c1C(=O)c1cc(Br)c(O)c(Br)c1` [BENZBROMARONE], the Activity in the data set filed under Mus musculus [1] was 37.3%; in the data set filed under Mus musculus [2], 753.2 µM; in data set [3], 74.7%.

As for `CC(Sc1nc2ncccc2n1-c1ccc(C2CC2)c2ccccc12)C(=O)O` (centres undefined), the Activity in the data set with Mus musculus [4] was 706.25 µM.

Regarding `O=C(O)CSc1nnc(Br)n1-c1ccc(C2CC2)c2ccccc12`, the Activity in the data set filed under Mus musculus [1] is 28.5%; in the data set filed under Mus musculus [5], 33.56%; in data set [7] it was “Non-Toxic”; in [8], “Toxic”; in the data set listed under Mus musculus [10], 476 µM; in the data set filed under Mus musculus [2], 841.2 µM. The Activity is 685.6 µM in the data set on Rattus norvegicus [11]; “Toxic” in data set [13]; “Toxic” in data set [14]; 706.25 µM in the data set with Mus musculus [4]; 31.77% with Rattus norvegicus [15]; 35.56% in the data set with Mus musculus [16]. Besides, the figures for the mortality at 168 h in [6] and in [9] were 60% and 20%, respectively. The inhibition at 10 µM in data set [12] was 5.72%.
